This note sets out measurements from US20100092526A1, “NANOEMULSION THERAPEUTIC COMPOSITIONS AND METHODS OF USING THE SAME” (NanoBio Corporation, priority 2008, published 2010).

Values after ≈ are worked out from the molar mass of the structure shown. Where only a bound is given, the exact number is not on record here.

This assay concerns Pseudomonas aeruginosa. In words: MIC/MBC against CF isolates (CLSI, alamar blue).

On to `CCN1CCN(C(=O)N[C@@H](C(=O)N[C@@H]2C(=O)N3[C@@H]2SC(C)(C)[C@@H]3C(=O)O)c2ccccc2)C(=O)C1=O` [Pipercillin], for which the MBC reads like this: (CF Pseudomonas isolate NB1) 1024 µg/mL (≈ 1980 µM); (CF Pseudomonas isolate NB2) 128 µg/mL (≈ 247 µM); (CF Pseudomonas isolate NB3) above 1024 µg/mL; (CF Pseudomonas isolate NB4) 1024 µg/mL (≈ 1980 µM); (CF Pseudomonas isolate NB5) above 1024 µg/mL; (CF Pseudomonas isolate NB6) above 1024 µg/mL. The MBC is 1024 µg/mL (≈ 1980 µM) (CF Pseudomonas isolate NB7), above 1024 µg/mL (CF Pseudomonas isolate NB8), above 1024 µg/mL (CF Pseudomonas isolate NB9) and 512 µg/mL (≈ 989 µM) (CF Pseudomonas isolate NB10). The MIC was 1024 µg/mL (≈ 1980 µM) (CF Pseudomonas isolate NB1); 128 µg/mL (≈ 247 µM) (CF Pseudomonas isolate NB2); above 1024 µg/mL (CF Pseudomonas isolate NB3); 512 µg/mL (≈ 989 µM) (CF Pseudomonas isolate NB4); above 1024 µg/mL (CF Pseudomonas isolate NB5); 1024 µg/mL (≈ 1980 µM) (CF Pseudomonas isolate NB6). For the same compound, the MIC is 512 µg/mL (≈ 989 µM) (CF Pseudomonas isolate NB7), above 1024 µg/mL (CF Pseudomonas isolate NB8), 512 µg/mL (≈ 989 µM) (CF Pseudomonas isolate NB9) and 256 µg/mL (≈ 495 µM) (CF Pseudomonas isolate NB10).
